The values that follow come from patent US8518959B2, “Quinoxaline derivatives as antitumor agents” (Prolexys Pharmaceuticals, Inc., priority 2005, dated 2013).

Test [1] deals with BJ-TERT/LT/ST/RAS^V12 cells. The experiment in a line: Nuclear morphology assay. The class given is cell-based, human. The conditions noted are these: fluorescence microscopy, 18 hours. The source says:
Applicants sought to characterize the type of cell death induced by CPT and erastin in tumorigenic BJ-TERT/LT/ST/RAS^V12 cells. […] To determine whether erastin or CPT induces apoptosis in their system, Applicants monitored the nuclear morphology of CPT- and erastin-treated tumorigenic cells using fluorescence microscopy. […] Since nuclear morphological change is required of apoptotic cells, Applicants conclude that cell death induced by erastin is non-apoptotic. […] Additionally, nuclei remained intact in erastin-treated tumor cells (FIG. 9).
200,000 tumorigenic BJ-TERT/LT/ST/RAS^V12 cells were seeded in 2 mL on glass coverslips in each well of a six-well dish, treated with nothing (NT), 9 μM erastin or 1.1 μM camptothecin (CPT) in growth medium for 18 hours while incubating at 37° C. with 5% CO2. Nuclei were stained with 25 μg/mL Hoechst 33342 (Molecular Probes) and viewed using an oil immersion 100× objective on a fluorescence microscope.

In the next test the test system is HT-1080 xenografts. Put plainly: HT-1080 tumor treatment study. In kind it is in vivo, mouse. The note with it: nude mice, 50 or 100 mg/Kg QD×5 days IP. As to the method: • Nude Balb/c (Nu/Nu strain, Charles River Laboratories), female, 5-6 week old (˜20 g average body weight). Formulation of Test Articles:
Both compounds were formulated in an identical manner. For the 100 mg/kg dose level, each compound was delivered at a concentration of 10.0 mg/ml, in an injection volume of 0.2 ml. For the 50 mg/kg dose level, each compound was delivered at a concentration of 5.0 mg/ml, in an injection volume of 0.2 ml. For both dose levels, the vehicle contained 0.025% Tween-80, 0.01% benzyl alcohol, 35 mM acetic acid (HOAc), 100 mM potassium phosphate buffer, and 32 mM sucrose, pH 6.5.
• A: PRLX compound 6@100 mg/Kg, QD×5 days, IP, n=8 • B: PRLX compound 6@50 mg/Kg, QD×5 days, IP, n=8 • C: PRLX compound 5@100 mg/Kg, QD×5 days, IP, n=8 • D: PRLX compound 5@50 mg/Kg, QD×5 days, IP, n=8 • E: Vehicle Control, QD×5 days, IP, n=8 • F: Untreated Control, n=8 Treatment Schedule: […]
Starting on Day 1, all animals were weighed, and tumor dimensions (length (L) and width (W)) were measured, every other day. […]
The resulting tumor volume values were averaged for each study group for each time point, and were then plotted against time. Variance was expressed as standard error of the mean (±SEM).

Another test relates to PANC-1 xenografts. The experiment in a line: PANC-1 tumor treatment study. The note with it: nude mice, once a day for five consecutive days. The class given is in vivo, mouse. On the procedure: The experimental plan for the PANC-1 study was essentially identical to that of the HT-1080 study outlined above in Example 10 with the following exceptions: approximately 3040 mg fragment of passaged PANC-1 tumor tissue was implanted subcutaneously in the right flank of an immunodeficient nude mouse. Tumor growth was monitored daily and when the tumors reached approximately 100 mm^3, animals harboring similarly sized tumors were group matched and compound dosing was initiated. Administration of compound 5 occurred once a day for five consecutive days at the doses listed below. In the PANC-1 xenografts, gemcitabine, administered at the maximum tolerated dose for the model, was used as a control. The gemcitabine regimen was 180 mg/kg […] on every third day over a period of 9 days.

Test [2] deals with BJ-TERT/LT/ST/RAS^V12 tumorigenic cells. Put plainly: Calcein AM viability assay, dilution series. The note with it: ST- and RAS^V12-dependent. In kind it is cell-based, human. The source says:
(§1) Described here is work carried out to identify compounds with increased potency or activity in the presence of hTERT, LT, ST, E6, E7 or RAS^V12. Although the work described herein made use of hTERT, LT, ST, E6, E7 and RAS^V12 as transforming genes, future studies can make use of a wide variety of cancer-associated alleles using this methodology in order to define the signaling networks that involve many oncogenes and tumor suppressors. Engineered cell lines with these genetic elements were used to screen 23,550 compounds, including 20,000 compounds from a combinatorial library, 1,990 compounds from the National Cancer Institute diversity collection, and 1,540 biologically active known compounds that were selected and purchased by Applicant and formatted into a screenable collection. […] Cell viability was measured using the dye calcein acetoxymethyl ester (calcein AM) (Wang et al., 1993, Hum. Immunol. 37, 264-270), which is a non-fluorescent compound that freely diffuses into cells. […]
(§2) Calcein acetoxylmethyl ester (AM) is a cell membrane-permeable, non-fluorescent compound that is cleaved by intracellular esterases to form the anionic, cell-impermeable, fluorescent compound calcein. […] Total fluorescence intensity in each well was recorded on a Packard Fusion platereader, and converted to a percent inhibition of signal by subtracting the instrument background and dividing by the average signal obtained when cells were not treated with any compound. […]
(§3) Mean RFU (relative fluorescence units) for untreated cells was calculated by averaging columns 1, 2, and 23 (wells with cells but lacking compounds). The calcein background was calculated by averaging column 24 (wells with calcein, but lacking cells). Percentage inhibition of each well was calculated as [1−(RFU−calcein control)/(untreated cell−calcein control)*100]. […]

Another test has as its system BJ primary cells. The experiment in a line: Calcein AM viability assay, dilution series. In kind it is cell-based, human.
Description: as §1, §2, §3

With `CC[C@@]1(O)C(=O)OCc2c1cc1n(c2=O)Cc2cc3ccccc3nc2-1` [Camptothecin], in test [1], the “Type of cell death / nuclear morphology” value was “karyorhexis and margination of chromatin were clearly visible”.
For the compound `CCOc1ccccc1-n1c(CN2CCNCC2)nc2ccccc2c1=O` [Compound 5, 3-(2-ethoxyphenyl)-2-(piperazin-1-ylmethyl)quinazolin-4(3H)-one], the “Antitumor effect in HT-1080 xenografts” value in the test on HT-1080 xenografts is “induction of robust tumor regression”. In the test on PANC-1 xenografts, the “Antitumor effect in PANC-1 xenografts” value was “induction of tumor regression”.
The like results for `CCOc1ccccc1-n1c(C(C)N2CCNCC2)nc2ccccc2c1=O` (centres unmarked) [Compound 6] were, in that order, “induction of tumor growth inhibition” and “induction of tumor growth inhibition”.
On to `CCOc1ccccc1-n1c(C(C)N2CCN(C(=O)COc3ccc(Cl)cc3)CC2)nc2ccccc2c1=O` (centres unmarked) [Erastin], for which the “Time to irreversible cell death” value in test [2] is 12 to 24 h.
`C=C1[C@@H](O)[C@@H]2O[C@]3(CC[C@H](/C=C/[C@@H](C)[C@@H]4CC(C)=C[C@@]5(O[C@H](C[C@@](C)(O)C(=O)O)CC[C@H]5O)O4)O3)CC[C@H]2O[C@@H]1[C@@H](O)C[C@H](C)[C@H]1O[C@@]2(CCCCO2)CC[C@H]1C` [okadaic acid]: the “Sensitization of BJ primary cells to camptothecin” value in the test with BJ primary cells (okadaic acid 3.4 nM with camptothecin) is reported as “renders BJ cells sensitive to camptothecin”. Also, the “Effect on calcein AM viability staining of BJ cells” value in the test on BJ primary cells (okadaic acid alone at 3.4 nM) is “no effect on its own”.
